Blank lines part the entries; values can stand above or below the compound they belong to. Activity calls are given as the source filed them. No cut-off for these calls is given here.
Tests used:
[1] = target: T1, Vascular endothelial growth factor receptor 3 (Homo sapiens, UniProt P35916)
Description: Inhibition of TEL-fused VEGFR3 (unknown origin) expressed in mouse BA/F3 cells assessed as inhibition of cell growth incubated for 72 hrs by Cell-titer-Glo assay

[2] = target: Receptor-type tyrosine-protein kinase FLT3 (Homo sapiens) (UniProt P36888)
Description: Inhibition of TEL-fused FLT3 (unknown origin) expressed in mouse BA/F3 cells assessed as inhibition of cell growth incubated for 72 hrs by Cell-titer-Glo assay

[3] = target: T2, Receptor-type tyrosine-protein kinase FLT3 (Homo sapiens, UniProt P36888)
T2 sequence (P36888 whole entry): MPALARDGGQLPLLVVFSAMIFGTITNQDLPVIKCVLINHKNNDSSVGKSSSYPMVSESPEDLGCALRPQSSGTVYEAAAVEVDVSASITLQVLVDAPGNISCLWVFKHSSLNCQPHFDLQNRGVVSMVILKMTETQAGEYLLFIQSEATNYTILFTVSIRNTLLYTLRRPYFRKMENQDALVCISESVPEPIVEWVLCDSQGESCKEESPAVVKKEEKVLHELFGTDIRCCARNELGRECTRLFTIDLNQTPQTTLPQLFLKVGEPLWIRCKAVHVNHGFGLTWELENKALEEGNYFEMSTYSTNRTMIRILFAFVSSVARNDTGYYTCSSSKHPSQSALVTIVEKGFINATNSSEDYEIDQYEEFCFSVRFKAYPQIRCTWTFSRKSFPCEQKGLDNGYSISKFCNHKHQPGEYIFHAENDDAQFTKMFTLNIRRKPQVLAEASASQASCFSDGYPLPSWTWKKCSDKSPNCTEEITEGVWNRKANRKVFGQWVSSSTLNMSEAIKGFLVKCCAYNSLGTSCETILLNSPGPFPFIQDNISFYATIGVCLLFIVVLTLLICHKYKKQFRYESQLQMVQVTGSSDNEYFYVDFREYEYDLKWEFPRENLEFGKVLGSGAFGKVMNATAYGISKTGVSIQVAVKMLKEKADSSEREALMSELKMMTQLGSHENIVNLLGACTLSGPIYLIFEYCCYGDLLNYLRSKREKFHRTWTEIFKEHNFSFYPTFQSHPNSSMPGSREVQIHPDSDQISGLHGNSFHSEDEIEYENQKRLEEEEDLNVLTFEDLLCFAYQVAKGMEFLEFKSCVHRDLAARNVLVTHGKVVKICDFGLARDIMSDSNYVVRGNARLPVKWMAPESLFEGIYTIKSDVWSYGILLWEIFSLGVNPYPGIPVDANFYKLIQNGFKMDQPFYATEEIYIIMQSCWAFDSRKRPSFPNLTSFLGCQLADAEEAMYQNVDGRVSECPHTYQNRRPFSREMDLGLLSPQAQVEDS

[4] = target: T3, Vascular endothelial growth factor receptor 2 (Homo sapiens, UniProt P35968)
Description: Inhibition of TEL-fused VEGFR2 (unknown origin) expressed in mouse BA/F3 cells assessed as inhibition of cell growth incubated for 72 hrs by Cell-titer-Glo assay

in vitro = settings: mouse, BA/F3 cells
Description: Growth inhibition of mouse BA/F3 cells assessed as inhibition of cell growth incubated for 72 hrs by Cell-titer-Glo assay

[5] = target: T3, Vascular endothelial growth factor receptor 2; remark: listed apart in the source
Description: Inhibition of human VEGFR2 using poly[Glu:Tyr] (4:1) substrate and [gamma-33P]-ATP by radiometric biochemical kinase assay

[6] = target: T1, Vascular endothelial growth factor receptor 3; remark: listed apart in the source
Description: Inhibition of human VEGFR3 using poly[Glu:Tyr] (4:1) substrate and [gamma-33P]-ATP by radiometric biochemical kinase assay

MOLM-14 [7] = assay: Induction of apoptosis in human MOLM14 cells assessed as induction of PARP cleavage at 0.1 to 1 uM incubated for 24 hrs by Western blot analysis; assay type: functional, cell-based
Homo sapiens [8] = organism: Homo sapiens; assay: Anti-lymphangiogenic activity in HDLEC assessed as reduction in human A375 cells-induced lymphatic sprouting at 1 to 10 uM incubated for 4 days by Hoechst 33342 and phalloidin staining based microfluidic platform assay relative to control; assay type: functional, cell-based
HUVEC [9] = assay: Anti-angiogenesis activity in truncated-FOSB transfected HUVEC cells model of pseudomyogenic-hemangioendothelioma assessed as inhibition of cell proliferation; assay type: functional, cell-based; settings: Homo sapiens
HUVEC [10] = assay: Anti-angiogenesis activity in truncated-FOSB transfected HUVEC cells model of pseudomyogenic-hemangioendothelioma assessed as inhibition of tube formation; assay type: functional, cell-based; settings: Homo sapiens
Homo sapiens [11] = organism: Homo sapiens; assay: Anti-lymphangiogenic activity in HDLEC assessed as reduction in human MIAPaCa-2 cells-induced lymphatic sprouting at 1 to 10 uM incubated for 4 days by Hoechst 33342 and phalloidin staining based microfluidic platform assay relative to control; assay type: functional, cell-based
[12] = target: T4, Vascular endothelial growth factor receptor 1 (Homo sapiens, UniProt P17948); assay: Inhibition of human VEGFR1 assessed as enzyme residual activity at 10 uM using poly[Glu:Tyr] (4:1) substrate and [gamma-33P]-ATP by radiometric biochemical kinase assay relative to control
HUVEC [13] = assay: Anti-angiogenesis activity in HUVEC assessed as inhibition of VEGF-A-induced cell migration at 0.1 uM incubated for 12 hrs by wound healing assay; assay type: functional, cell-based; settings: Homo sapiens
Mus musculus [14] = assay: Anti-angiogenesis activity in C57BL/6 mouse assessed as suppression of suture-induced corneal angiogenesis at 200 nM administered topically every 12 hrs for 7 days by immunohistochemical analysis; assay type: functional, organism-based
HUVEC [15] = assay: Anti-angiogenesis activity in HUVEC assessed as inhibition of VEGF-A-induced tube formation at 0.1 uM incubated for 6 hrs by tube formation assay; assay type: functional, cell-based; settings: Homo sapiens
[16] = target: c-Kit (Mast/stem cell growth factor receptor Kit) (Homo sapiens, UniProt P10721); assay: Inhibition of human c-Kit assessed as enzyme residual activity at 10 uM using poly[Glu:Tyr] (4:1) substrate and [gamma-33P]-ATP by radiometric biochemical kinase assay relative to control; settings: probe poly[Glu:Tyr] (4:1), read-out: Activity
[17] = target: Mast/stem cell growth factor receptor Kit (Homo sapiens, UniProt P10721); assay: Inhibition of c-Kit phosphorylation in human TF1 cells assessed as at 0.1 to 0.3 uM incubated for 2 hrs by Western blot analysis; assay type: cell-based
MV4-11 [18] = assay: Induction of apoptosis in human MV4-11 cells assessed as induction of caspase-3 cleavage at 0.1 to 1 uM incubated for 24 hrs by Western blot analysis; assay type: functional, cell-based
[19] = Toxicity in C57BL/6 mouse assessed as induction of clinically detectable corneal-epitheliopathy at 200 nM administered topically every 12 hrs for 7 days by immunohistochemical analysis; settings: in vivo, topical_or_ocular, 0.2 µM
MV4-11 [20] = assay: Induction of apoptosis in human MV4-11 cells at 0.1 uM incubated for 24 hrs by propidium iodide and annexin-V staining based flow cytometry; assay type: functional, cell-based
MOLM-14 [21] = assay: Induction of apoptosis in human MOLM14 cells assessed as induction of caspase-3 cleavage at 0.1 to 1 uM incubated for 24 hrs by Western blot analysis; assay type: functional, cell-based
[22] = target: T4, Vascular endothelial growth factor receptor 1; assay: Inhibition of human VEGFR1 using poly[Glu:Tyr] (4:1) substrate and [gamma-33P]-ATP by radiometric biochemical kinase assay
MOLM-14 [23] = assay: Induction of apoptosis in human MOLM14 cells at 0.1 uM incubated for 24 hrs by propidium iodide and annexin-V staining based flow cytometry; assay type: functional, cell-based
MV4-11 [24] = assay: Induction of apoptosis in human MV4-11 cells assessed as induction of PARP cleavage at 0.1 to 1 uM incubated for 24 hrs by Western blot analysis; assay type: functional, cell-based
Mus musculus [25] = assay: Anti-lymphangiogenic activity in C57BL/6 mouse assessed as suppression of suture-induced corneal lymphangiogenesis at 200 nM administered topically every 12 hrs for 7 days by immunohistochemical analysis; assay type: functional, organism-based
HUVEC [26] = assay: Anti-angiogenesis activity in truncated-FOSB transfected HUVEC cells model of pseudomyogenic-hemangioendothelioma assessed as inhibition of tube formation up to 5 uM; assay type: functional, cell-based; settings: Homo sapiens
Homo sapiens [27] = organism: Homo sapiens; assay: Anti-lymphangiogenic activity in HDLEC assessed as reduction in growth factor cocktail-induced lymphatic sprouting at 10 uM incubated for 4 days by Hoechst 33342 and phalloidin staining based microfluidic platform assay relative to control; assay type: functional

T1 sequence (P35916 whole entry): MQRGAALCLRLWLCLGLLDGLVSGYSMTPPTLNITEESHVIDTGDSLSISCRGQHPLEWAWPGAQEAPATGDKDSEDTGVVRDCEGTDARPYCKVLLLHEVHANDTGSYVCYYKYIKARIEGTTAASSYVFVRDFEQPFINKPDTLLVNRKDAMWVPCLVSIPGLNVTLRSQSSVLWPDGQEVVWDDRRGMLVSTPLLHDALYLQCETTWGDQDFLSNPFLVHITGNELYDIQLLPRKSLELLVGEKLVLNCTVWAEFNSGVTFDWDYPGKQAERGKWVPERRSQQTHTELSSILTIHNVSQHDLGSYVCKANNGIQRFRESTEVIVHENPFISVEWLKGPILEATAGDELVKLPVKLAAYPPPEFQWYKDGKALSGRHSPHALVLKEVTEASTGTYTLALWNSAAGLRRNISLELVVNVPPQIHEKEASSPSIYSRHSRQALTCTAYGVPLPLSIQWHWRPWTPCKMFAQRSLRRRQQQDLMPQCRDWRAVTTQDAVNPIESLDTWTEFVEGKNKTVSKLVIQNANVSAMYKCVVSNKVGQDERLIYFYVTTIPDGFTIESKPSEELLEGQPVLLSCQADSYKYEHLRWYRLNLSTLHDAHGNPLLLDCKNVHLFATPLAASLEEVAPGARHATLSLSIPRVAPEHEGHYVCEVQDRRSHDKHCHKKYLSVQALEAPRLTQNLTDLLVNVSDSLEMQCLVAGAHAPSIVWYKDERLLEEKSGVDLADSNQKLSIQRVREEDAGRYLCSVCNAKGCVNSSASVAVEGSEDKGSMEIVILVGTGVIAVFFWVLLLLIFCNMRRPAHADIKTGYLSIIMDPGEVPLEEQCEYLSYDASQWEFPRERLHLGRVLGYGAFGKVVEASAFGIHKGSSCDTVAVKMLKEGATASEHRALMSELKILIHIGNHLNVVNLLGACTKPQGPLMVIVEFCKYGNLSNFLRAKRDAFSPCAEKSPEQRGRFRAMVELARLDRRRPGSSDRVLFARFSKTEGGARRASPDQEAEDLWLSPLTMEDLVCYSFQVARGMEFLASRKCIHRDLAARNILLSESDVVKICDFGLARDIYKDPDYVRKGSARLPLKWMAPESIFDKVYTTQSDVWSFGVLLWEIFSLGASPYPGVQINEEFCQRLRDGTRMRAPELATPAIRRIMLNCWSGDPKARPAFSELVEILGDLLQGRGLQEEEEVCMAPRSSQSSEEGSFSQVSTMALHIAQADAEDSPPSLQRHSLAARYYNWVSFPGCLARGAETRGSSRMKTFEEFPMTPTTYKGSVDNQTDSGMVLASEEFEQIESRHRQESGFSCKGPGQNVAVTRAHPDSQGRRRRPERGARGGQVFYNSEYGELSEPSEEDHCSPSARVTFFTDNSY
T3 sequence (P35968 whole entry): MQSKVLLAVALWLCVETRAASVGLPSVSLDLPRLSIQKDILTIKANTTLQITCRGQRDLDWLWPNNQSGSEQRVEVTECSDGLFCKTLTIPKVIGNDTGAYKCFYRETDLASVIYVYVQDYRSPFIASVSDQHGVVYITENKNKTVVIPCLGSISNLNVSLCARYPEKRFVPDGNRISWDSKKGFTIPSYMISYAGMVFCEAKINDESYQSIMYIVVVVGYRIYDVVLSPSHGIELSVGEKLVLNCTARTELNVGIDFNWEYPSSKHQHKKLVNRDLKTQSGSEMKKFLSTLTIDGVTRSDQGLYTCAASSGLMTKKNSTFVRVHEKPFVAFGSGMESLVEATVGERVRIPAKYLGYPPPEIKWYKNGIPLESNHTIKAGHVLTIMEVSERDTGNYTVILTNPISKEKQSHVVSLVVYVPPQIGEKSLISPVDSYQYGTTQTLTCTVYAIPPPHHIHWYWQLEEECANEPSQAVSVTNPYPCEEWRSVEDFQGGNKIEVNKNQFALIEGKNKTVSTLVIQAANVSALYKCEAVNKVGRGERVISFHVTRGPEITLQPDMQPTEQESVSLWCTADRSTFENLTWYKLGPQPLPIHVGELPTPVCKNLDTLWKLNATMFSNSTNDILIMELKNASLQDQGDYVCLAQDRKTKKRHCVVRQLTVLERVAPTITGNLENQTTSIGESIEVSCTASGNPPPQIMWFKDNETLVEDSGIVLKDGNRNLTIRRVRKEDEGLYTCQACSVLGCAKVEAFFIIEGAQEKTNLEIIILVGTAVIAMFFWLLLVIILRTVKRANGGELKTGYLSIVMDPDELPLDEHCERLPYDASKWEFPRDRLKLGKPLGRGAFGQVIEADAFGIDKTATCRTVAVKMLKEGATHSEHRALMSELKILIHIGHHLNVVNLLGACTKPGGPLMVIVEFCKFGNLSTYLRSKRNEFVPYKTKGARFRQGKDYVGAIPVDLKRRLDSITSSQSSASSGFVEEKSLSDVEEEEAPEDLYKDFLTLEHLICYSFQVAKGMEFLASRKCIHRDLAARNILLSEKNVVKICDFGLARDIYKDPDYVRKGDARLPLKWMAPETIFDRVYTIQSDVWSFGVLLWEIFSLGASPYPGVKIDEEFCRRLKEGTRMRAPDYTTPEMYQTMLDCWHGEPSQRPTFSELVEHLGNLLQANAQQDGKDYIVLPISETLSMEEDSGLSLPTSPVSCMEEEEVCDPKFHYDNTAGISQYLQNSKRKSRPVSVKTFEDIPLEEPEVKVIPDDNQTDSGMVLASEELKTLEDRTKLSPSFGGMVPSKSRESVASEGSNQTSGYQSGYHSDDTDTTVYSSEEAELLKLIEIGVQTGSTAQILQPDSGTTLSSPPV
T4 sequence (P17948 whole entry): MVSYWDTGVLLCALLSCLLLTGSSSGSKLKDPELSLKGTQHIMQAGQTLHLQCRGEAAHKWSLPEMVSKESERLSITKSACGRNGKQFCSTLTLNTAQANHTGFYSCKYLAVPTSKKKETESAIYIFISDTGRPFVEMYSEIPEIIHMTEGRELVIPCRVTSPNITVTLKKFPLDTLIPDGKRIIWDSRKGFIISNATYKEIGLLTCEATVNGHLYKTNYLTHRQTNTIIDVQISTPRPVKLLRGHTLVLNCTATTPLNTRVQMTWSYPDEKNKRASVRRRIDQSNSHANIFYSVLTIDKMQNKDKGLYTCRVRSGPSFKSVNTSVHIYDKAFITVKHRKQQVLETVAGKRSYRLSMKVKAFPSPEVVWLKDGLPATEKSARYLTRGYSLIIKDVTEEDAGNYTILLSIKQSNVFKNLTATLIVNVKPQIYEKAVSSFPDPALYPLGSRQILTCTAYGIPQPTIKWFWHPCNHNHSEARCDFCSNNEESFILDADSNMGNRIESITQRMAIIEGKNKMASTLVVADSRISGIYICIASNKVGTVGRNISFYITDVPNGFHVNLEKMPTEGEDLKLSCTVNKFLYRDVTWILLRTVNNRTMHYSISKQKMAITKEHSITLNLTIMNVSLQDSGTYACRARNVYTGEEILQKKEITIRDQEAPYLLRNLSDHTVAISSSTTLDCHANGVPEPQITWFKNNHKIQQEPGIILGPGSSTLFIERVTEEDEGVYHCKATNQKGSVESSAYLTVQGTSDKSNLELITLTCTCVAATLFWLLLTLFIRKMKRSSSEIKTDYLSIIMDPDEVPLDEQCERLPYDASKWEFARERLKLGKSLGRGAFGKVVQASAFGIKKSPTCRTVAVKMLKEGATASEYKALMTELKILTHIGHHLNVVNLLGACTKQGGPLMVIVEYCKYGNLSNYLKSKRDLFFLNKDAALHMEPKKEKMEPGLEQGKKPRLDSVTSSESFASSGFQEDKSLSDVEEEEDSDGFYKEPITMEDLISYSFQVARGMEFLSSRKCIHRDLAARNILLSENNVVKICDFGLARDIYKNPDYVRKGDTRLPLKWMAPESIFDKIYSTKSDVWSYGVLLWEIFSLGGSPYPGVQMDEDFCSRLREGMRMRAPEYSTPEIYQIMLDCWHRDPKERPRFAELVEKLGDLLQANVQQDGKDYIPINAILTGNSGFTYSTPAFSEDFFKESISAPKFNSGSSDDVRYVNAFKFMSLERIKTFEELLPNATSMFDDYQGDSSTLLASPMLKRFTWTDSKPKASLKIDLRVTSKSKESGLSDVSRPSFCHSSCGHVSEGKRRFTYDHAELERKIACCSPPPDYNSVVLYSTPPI
Sequence of c-Kit (Mast/stem cell growth factor receptor Kit) (P10721 whole entry): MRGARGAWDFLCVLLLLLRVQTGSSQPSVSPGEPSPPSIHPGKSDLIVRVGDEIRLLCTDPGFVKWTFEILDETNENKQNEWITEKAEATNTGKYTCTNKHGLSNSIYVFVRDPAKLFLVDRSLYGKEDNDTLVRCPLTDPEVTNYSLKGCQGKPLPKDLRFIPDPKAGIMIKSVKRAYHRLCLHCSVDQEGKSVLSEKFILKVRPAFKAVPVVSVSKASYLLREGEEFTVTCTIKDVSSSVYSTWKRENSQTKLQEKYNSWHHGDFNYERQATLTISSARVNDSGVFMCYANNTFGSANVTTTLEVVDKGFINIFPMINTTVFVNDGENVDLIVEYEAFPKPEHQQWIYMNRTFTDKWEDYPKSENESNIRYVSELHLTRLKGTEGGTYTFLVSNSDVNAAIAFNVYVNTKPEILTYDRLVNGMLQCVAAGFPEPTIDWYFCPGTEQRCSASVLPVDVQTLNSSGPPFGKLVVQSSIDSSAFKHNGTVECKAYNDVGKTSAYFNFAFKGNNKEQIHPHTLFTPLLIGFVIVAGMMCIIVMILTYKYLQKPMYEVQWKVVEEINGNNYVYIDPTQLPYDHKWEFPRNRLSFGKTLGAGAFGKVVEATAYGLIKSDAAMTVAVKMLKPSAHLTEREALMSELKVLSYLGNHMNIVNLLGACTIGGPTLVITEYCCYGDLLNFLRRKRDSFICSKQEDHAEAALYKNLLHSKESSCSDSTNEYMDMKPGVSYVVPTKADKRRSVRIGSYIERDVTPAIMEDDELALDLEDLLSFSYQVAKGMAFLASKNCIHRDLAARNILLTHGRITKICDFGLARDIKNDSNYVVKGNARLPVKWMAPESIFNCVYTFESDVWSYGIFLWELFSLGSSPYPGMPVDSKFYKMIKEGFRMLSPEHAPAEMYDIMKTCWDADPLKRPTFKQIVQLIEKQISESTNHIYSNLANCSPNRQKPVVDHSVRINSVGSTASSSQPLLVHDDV
Sequence of Mast/stem cell growth factor receptor Kit (P10721 whole entry): as above

SMILES: COc1cc(O)c2c(c1)CCC[C@H](O)[C@H](O)C(=O)/C=C\C[C@H](C)OC2=O
GI50 [1]: 0.05 µM | GI50 [2]: 0.27 µM | IC50 [3]: 0.0018 µM | GI50 [4]: 0.14 µM | GI50 at 72 h (in vitro): 1.7 µM | IC50 [5]: 0.0029 µM | IC50 [6]: 0.00073 µM

SMILES: C=C1/C=C\C[C@H](C)OC(=O)c2c(O)cc(OC)cc2-c2cccc(c2)[C@@H](O)[C@@H]1O
GI50 [1]: > 25 µM | GI50 [4]: > 25 µM | GI50 at 72 h (in vitro): > 25 µM | IC50 [5]: > 10 µM | IC50 [6]: > 10 µM

SMILES: COc1cc(O)c2c(c1)-c1cccc(c1)[C@H](O)[C@H](O)C(=O)/C=C\C[C@H](C)OC2=O
GI50 at 72 h (in vitro): 12 µM

SMILES: COc1cc(O)c2c(c1)-c1cccc(c1)[C@@H](O)[C@H](O)C(=O)/C=C\C[C@H](C)OC2=O
Activity (MOLM-14 [7]): Active | Activity (Homo sapiens [8]): Active | Activity (HUVEC [9]): Dose-dependent effect | Activity (HUVEC [10]): Dose-dependent effect | Activity (Homo sapiens [11]): Active | Activity [12]: 36.6% | inhibition (HUVEC [13]): Active | Activity (Mus musculus [14]): Active | inhibition (HUVEC [15]): Active | activity at 10 µM [16]: 82.2% | inhibition (INH) [17]: Not Active | Activity (MV4-11 [18]): Active | Activity [19]: Non-Toxic | GI50 at 72 h (in vitro): 10 µM | Activity (MV4-11 [20]): Active | Activity (MOLM-14 [21]): Active | IC50 [22]: 0.845 µM | Activity (MOLM-14 [23]): Active | Activity (MV4-11 [24]): Active | Activity (Mus musculus [25]): Active

SMILES: COc1cc(O)c2c(c1)-c1cccc(c1)[C@H](O)[C@@H](O)C(=O)CCC[C@H](C)OC2=O
GI50 at 72 h (in vitro): > 25 µM

SMILES: COc1cc(O)c2c(c1)-c1cccc(c1)CCC(=O)/C=C\C[C@H](C)OC2=O
GI50 at 72 h (in vitro): > 25 µM

SMILES: COc1cc(O)c2c(c1)-c1cccc(c1)[C@@H](O)[C@H](O)[C@@H](N)/C=C\C[C@H](C)OC2=O
GI50 [1]: > 25 µM | GI50 [2]: > 25 µM | GI50 [4]: > 25 µM | GI50 at 72 h (in vitro): > 25 µM | IC50 [5]: > 10 µM | IC50 [6]: > 10 µM

More lines, main results first:

GI50 at 72 h (in vitro): > 25 µM
SMILES: COc1cc(O)c2c(c1)-c1cccc(c1)[C@@H](O)[C@H](O)C(=O)CCC[C@H](C)OC2=O

GI50 at 72 h (in vitro): > 25 µM
SMILES: COc1cc(O)c2c(c1)-c1cccc(c1)[C@@H](O)[C@H](O)[C@H](O)/C=C\C[C@H](C)OC2=O

GI50 at 72 h (in vitro): 11 µM
SMILES: COc1cc(O)c2c(c1)-c1cccc(c1)[C@@H](O)[C@H](O)C(=O)C/C=C/[C@H](C)OC2=O

GI50 [1]: 0.059 µM | GI50 [2]: 18 µM | IC50 [3]: 0.29 µM | GI50 [4]: 4.6 µM | GI50 at 72 h (in vitro): > 25 µM | IC50 [5]: 0.067 µM | IC50 [6]: 0.0012 µM
SMILES: CCn1c(N)c(C(=O)NC)c(=O)c2ccc(C#C[C@@](C)(O)COC)nc21
inhibition (HUVEC [13]): inactive | Activity (HUVEC [26]): inactive | inhibition (HUVEC [15]): inactive | Activity [19]: Non-Toxic | fold change (FC) (Homo sapiens [27]): 2 | Activity (Mus musculus [25]): Active

GI50 at 72 h (in vitro): > 25 µM
SMILES: COc1cc(O)c2c(c1)-c1cccc(c1)[C@H](O)[C@H](O)C(=O)CCC[C@H](C)OC2=O

GI50 at 72 h (in vitro): 17 µM
SMILES: COc1cc(O)c2c(c1)-c1cccc(c1)[C@H](O)[C@@H](O)C(=O)/C=C\C[C@H](C)OC2=O

Source: ChEMBL document CHEMBL4334496, “Identification of a Unique Resorcylic Acid Lactone Derivative That Targets Both Lymphangiogenesis and Angiogenesis” (J Med Chem, 2019)
